{"source": "patent US20220226231A1", "about": "“AGRIMONY EXTRACT AS ANTI-POLLUTION AGENT” (PIERRE FABRE DERMO-COSMETIQUE, priority 2019, published 2022)", "test_system": "reconstructed human epithelium (RHE)", "assay": "Anti-pollution activity: MDA production (lipid peroxidation) in ozone-stressed reconstructed human epithelium", "format": "cell-based", "settings": "Trolox 1 mg/mL", "description": "The objective of this study is to evaluate the antioxidant, detoxifying and ozone-protective activity of an agrimony extract, following exposure to ozone in a reconstructed human epithelium (RHE) mimicking the effect of pollution on the skin. Lipids playing a role in epidermal barrier function, such as free fatty acids, cholesterol, triglycerides and ceramides, can be impacted under stress conditions with increased oxidative lipid damage. Direct measurements of lipid peroxidation can be carried out by measuring malondialdehyde (MDA) by gas chromatography techniques combined with mass spectrometry. This compound is naturally present in tissues, where it is a manifestation of oxidative stress. It is derived in particular from the action of reactive oxygen derivatives on polyunsaturated fatty acids. Several conditions are realized in this study: • Negative control: non-stressed RHE; • Positive control: ozone-stressed RHE; • Test with an agrimony extract: ozone-stressed RHE is in contact with the extract (n=3), this test is performed with 3 different concentrations (1, 3 and 10 μg/mL); • Test with a reference compound: ozone-stressed RHE is in contact with the reference compound (Trolox). The agrimony extract is solubilized in water/DMSO, (80/20, v/v). The process is based on lipid oxidation from ozonolysis. […] A protection index is calculated from the stress and control conditions. […]", "data": [{"compound": "Cc1c(C)c2c(c(C)c1O)CCC(C)(C(=O)O)O2", "note": "(centres unmarked) [Trolox, 3,4-Dihydro-6-hydroxy-2,5,7,8-tetramethyl-2H-1-benzopyran-2-carboxylic acid]", "values": [{"measurement": "PI (%) protection index", "value": 37.6, "unit": "%"}, {"measurement": "PI (%) protection index", "setting": "listed as trolox", "value": 38, "unit": "%"}]}]}
